Measurements reported in publication PMC10303371, “Activity and Selectivity of Novel Chemical Metallic Complexes with Potential Anticancer Effects on Melanoma Cells” (Molecules, 2023).
Where two headings read alike, the source gives them in different places.

Experiments:
MeWo cells [1] = assay: Apoptosis by Annexin V / propidium iodide flow cytometry; format: cell-based, human; conditions: 20 μM
Method: Annexin V FITC Apoptosis Detection Kit (Cat. […] Then, 5 μL of Annexin V FITC Conjugate and 5 μL of propidium Iodide PE Solution were added to 100 μL of the cell suspension (1 × 10^6 cells/mL). After incubation for 15 min at room temperature with light protection, 400 μL of Annexin V Binding Solution was added for flow cytometry analysis.

HaCaT cells = assay: MTT selectivity study on HaCaT non-cancerous cell line; format: cell-based, human; conditions: 5 μM, 48 h
Method: (§1) IC50 values for MeWo cells were calculated with GraphPad Prism software (6.0 for Windows, LLC, San Diego, CA, USA).
(§2) Then, the supernatant was removed and 100 μL of dimethyl sulfoxide (DMSO) was added to solubilize formazan crystals. The absorbance was measured at 490 nm using a microplate reader (Infinite F200 PRO, Tecan Group Ltd., Männedorf, Switzerland) Cell metabolic activity was calculated as percentage compared to the control group (considered as 100%), according to Equation (1):(1) % Cell metabolic activity=Abs of sample−Abs blank/Abs of control−Abs blank×100

[2] = Hydrolytic stability by 1H-NMR; format: physicochemical; conditions: D2O-10% of DMSO-d6; 0 h, 2 h, 4 h, 24 h, 48 h and 72 h
Text: 10% of DMSO-d6, following the procedure in ref. [23]. Figures S3–S6 show the 1H-NMR […]
time. These preliminary studies can be reasonably extended to all synthesized complexes because they have a similar structure. Thus, it is possible to affirm th at these complexes are […]
(1 picture or pasted object on this page, not shown here)

MeWo cells [3] = assay: MTT cell viability assay on 2D MeWo culture; format: cell-based, human; conditions: for inhibition of MeWo viability / decrease in cell viability: 20 μM; for inhibition of MeWo viability / change of cell viability (in words): 24 h
Method: as §1, §2

histone H2AX = assay: Western blot of histone H2AX phosphorylation in MeWo cells; format: cell-based, human; conditions: 20 μM
Method: (§3) Human melanoma cells (MeWo; ATCC®, HTB-65^TM) were grown in 100 mm Petri Dishes at a density of 1.5 × 10^4 cells/cm^2 and treated with 20 μM of AuM1 (5′-15′-30′-1 h) and AgM1 (5′-15′-30′-1 h-24 h). After treatments, cells were harvested and lysed in RIPA buffer (NaCl 150 mM, 1% triton X-100 pH 8.0, 0.5% sodium deoxycholate, 0.1% SDS, 50 mM Tris, pH 8.0), supplemented with protease inhibitors cocktail and phosphatase inhibitors (Merck), 1 h on ice. Lysates were then centrifuged for 30 min at 15,000× g and supernatant were transferred to a new 1.5 mL tube. Protein amount was determined by Bradford assay (Bio-Rad, Hercules, CA, USA) and 15 μg of total protein extracts were separated by SDS–PAGE gels and transferred onto nitrocellulose membranes. […] Immunoreactivity was detected by sequential incubation with appropriate horseradish peroxidase-conjugated secondary antibodies (Merck) for 1 h at room temperature and Pierce ECL detection reagents (Thermo Scientific, Rockford, IL, USA) on an X-ray film. […] The area under the curves, each relative to a band, was determined and the background was subtracted from the calculated values.

MeWo cells [4] = assay: Time-Lapse Live-Cell Imaging of 2D MeWo culture; format: cell-based, human; conditions: 20 μM
Method: MeWo culture was performed using Time-Lapse Live-Cell Imaging System formed by a Bold Line Top Stage Incubator for 35 mm Petri dishes (H301-T UNIT BL; Okolab S.r.l., Pozzuoli, Italy), that allows the acquisition of the same field along the culture time in fixed culture point mapped by the fully automated stage. The incubator has independent control of gas (CO2/O2), humidity and temperature, and ensured an environment with 37 °C of temperature and 5% of CO2 atmosphere. The system allows acquisition in brightfield and fluorescence. All images of different fields within the culture chamber were achieved automatically, using Olympus IX83 time-lapse microscope by motorized stage and CCD monochrome camera (mod. XM10, Olympus, Segrate, Italy), and with all operations under the control of the X-Excellence advanced live-cell imaging software (version 2.0, Olympus Inc., Segrate, Italy). In our case, cell images were captured in brightfield using a 10× objective every 4 h intervals. The related videos reported in Supplementary Materials were generated with windows movie maker software (version 2.0, Microsoft) starting from the acquired frames.

MeWo cells [5] = assay: Cell cycle analysis by DNA content (propidium iodide) flow cytometry; format: cell-based, human; conditions: 48 h
Method: Human melanoma cells (MeWo, HTB-65^TM; ATCC®, Manassas, VA, USA) were grown in 24-well plates at a density of 1 × 10^4 cells/cm^2 and treated with AuM1 (at 1 μM and 5 μM) and AgM1 (at 10 μM and 20 μM) for 24 h and 48 h. After treatments, cells were transferred in 15 mL polypropylene V-bottomed tubes, rinsed twice in ice cold PBS, and stained in freshly prepared PBS buffer containing 1 mg/mL propidium iodide (PI) (Merck Life Science S.r.l., Milan, Italy), 110,000 U/mL RNase A (Merck) and 0.1% Triton X-100 (Merck Life Science S.r.l., Milan, Italy). Cells were incubated 30 min at 4 °C in the dark and analysed with a BD FACSVerse flow cytometer (Becton Dickinson, BD, Franklin Lakes, NJ, USA) counting 1 × 10^4 events per sample. G1, S and G2/M cell cycle phase percentages were analysed by ModFit LT software (version 3.0).

MeWo 3D culture = assay: Live/Dead assay on 3D MeWo cultures (spheroids); format: cell-based, human; conditions: 3D MeWo culture, 5 μM, 24 h, semi-quantitative
Text: High density 3D cultures were obtained using 96-well ultra-low attachment microplates (Corning, Manassas, VA, USA). Briefly, MeWo cells were resuspended at a density of 500.000 cells/mL. […] For the cell viability assay, the average value of 10 3D-systems (n = 3) were considered.
Cell viability of 3D cultures was detected by fluorescence Live/Dead assay after cellular aggregate formation. Calcein AM solution (Cat. no C1359, Sigma-Aldrich) was used to stain live cells, while cell membrane-impermeable Ethidium homodimer I solution (Cat. no E1903, Sigma-Aldrich) for nuclei of dead cells.

p-ERK 1/2 = assay: Western blot of ERK phosphorylation in MeWo cells; format: cell-based, human; conditions: 20 μM
Method: as §3

Thermal stability = format: physicochemical; conditions: decompose before melting
[6] = MeWo, MTT, 24 h of treatment, read-out: IC50 24 h
[7] = MeWo, MTT, 48 h of treatment, read-out: IC50 48 h
[8] = 5 μM, screening of derivatives, MTT

| SMILES | hydrolytic stability (1H-NMR spectra over time) [2] | inhibition of MeWo viability (MeWo cells [3]) | decrease in cell viability (MeWo cells [3]; MeWo, 48 h) | IC50 (MeWo cells [3]; [6]) | IC50 (MeWo cells [3]; [7]) | time of treatment after which cell death was observed (MeWo cells [4]) | red signal (dead cells), Live/Dead assay (MeWo 3D culture) | reduction of cell viability (MeWo cells [3]; MeWo, 10 μM, 48 h) | other results |
| --- | --- | --- | --- | --- | --- | --- | --- | --- | --- |
| C[n+]1c(Cl)c(Cl)n(CC(O)c2ccccc2)[c]1[Au-][Cl] (racemic) [AuM1] | no changes are observed | able to inhibit MeWo viability | more than 50% | 5.48 µM | 3.12 µM | 8 h | 45% | – | apoptotic cells (MeWo cells [1]; 8 h of exposure, control 11.7%): 63.8%; HaCaT viability (HaCaT cells): 70%; selectivity MeWo vs HaCaT (in words) (HaCaT cells): most selective; MeWo viability (MeWo cells [3]; 5 μM, 48 h): 30%; MeWo viability reduction (MeWo cells [3]; 5 μM, 48 h): 70%; reduction of cell viability (MeWo cells [3]; MeWo, 48 h, concentration not restated, by context 10 μM): 95%; phosphorylation of histone H2AX (histone H2AX; already after 5 min (5'-15'-30'-1 h)): significant and marked increase; cell cycle progression (MeWo cells [5]; 5 μM): G0/G1 phase cell cycle arrest; ERK phosphorylation (p-ERK) (p-ERK 1/2): pronounced and significant decrease |
| CC(C)(C)OC(=O)N[C@@H](Cc1ccccc1)C(=O)[O-].[Ag+] [PheAg, Boc-L-Phenylalanine silver salt] | no changes are observed | – | – | – | – | – | 50% | – | MeWo viability reduction (MeWo cells [3]; [8]): up to 80% |
| CC(C)(C)OC(=O)NCC(=O)[O-].[Ag+] [GlyAg, Boc-Glycine silver salt] | – | – | – | – | – | – | – | – | MeWo viability reduction (MeWo cells [3]; [8]): up to 80% |
| C[n+]1ccn(CC(O)c2ccccc2)[c]1[Au-][Cl] (racemic) [AuL20] | – | able to inhibit MeWo viability | 25% | ~24.6 µM | 31.1 µM | > 40 h | – | about 10% | change of cell viability (in words) (MeWo cells [3]; MeWo, 10 μM): apparent increase in cell viability |
| Cn1c(Cl)c(Cl)[n+](CC(O)c2ccccc2)[c]1[Ag-][O]C(=O)CNC(=O)OC(C)(C)C (stereo not drawn) [AgM1Gly] | no changes are observed | – | – | – | – | – | – | – | thermally stable up to temperature (Thermal stability): around 150 °C |
| C[n+]1ccn(CC(O)c2ccccc2)[c]1[Ag-][I] (racemic) [AgL20] | – | able to inhibit MeWo viability | more than 50% | ~19.4 µM | 18.3 µM | > 96 h | – | about 10% | change of cell viability (in words) (MeWo cells [3]; MeWo, 10 μM): apparent increase in cell viability |
| CC(C)(C)OC(=O)N[C@@H](Cc1ccccc1)C(=O)O.CN1[CH-]N(CC(O)c2ccccc2)C(Cl)=C1Cl.[Au+] [AuM1Phe] | no changes are observed | – | – | – | – | – | 60% | – | – |
| N.N.[Cl][Pt][Cl] [cisplatin, reference compound] | – | – | – | – | – | – | – | – | inhibition of MeWo cultures (MeWo cells [3]; even at 20 μM): not inhibited |
| C[n+]1c(Cl)c(Cl)n(CC(O)c2ccccc2)[c]1[Ag-][I] (racemic) [AgM1] | – | able to inhibit MeWo viability | more than 50% | 15.4 µM | 14.8 µM | 96 h | – | about 10% | apoptotic cells (MeWo cells [1]; 96 h of treatment): ~6.7%; reduction in cell viability (MeWo cells [3]; MeWo, 1 μM, 48 h): 30%; Minimum Inhibitory Concentration (MIC) (MeWo cells [3]; MeWo, 48 h): 1 µM; phosphorylation of histone H2AX (histone H2AX; at 5'-30'-1 h): significantly increase; cell cycle progression (MeWo cells [5]; 20 μM): G0/G1 phase cell cycle arrest; ERK phosphorylation (p-ERK) (p-ERK 1/2): pronounced and significant decrease |
